The target of the assay is human DPP1 enzyme (Homo sapiens (Human), UniProt P53634). The assay is described as follows: Activity on human recombinant DPP1 isolated enzyme assay (H-Gly-Arg-AMC cleavage, fluorescence). The format is biochemical. As to the method:
Human DPP1 enzyme activity was determined by measuring release of the fluorophore aminomethyl coumarin (AMC) following enzymatic cleavage of the dipeptide substrate H-Gly-Arg-AMC. Assays were performed in black 384 well plates in 25 mM piperazine buffer, pH 5.0, containing 50 mM NaCl, 0.01% (v/v) Triton X100, 5 mM DTT with 0.35 nM human DPP1 enzyme, 300 μM H-Gly-Arg-AMC substrate (˜Km concentration) and test compounds at 0.51-10000 nM concentration range. Human DPP1 was pre-incubated with test compounds for 30 minutes at 25° C. prior to substrate incubation for a further 40 minutes at 25° C. Enzyme activity was determined by measuring fluorescence of the AMC product at excitation and emission wavelengths of 380 nm and 460 nm using a BMG LABTECH PHERA star plate reader. Test compound potencies are reported in Table 15 as pIC50 values generated from 4-parameter sigmoidal curve fitting of the measured concentration-inhibition responses.

[1] abbreviates: 0.35 nM human DPP1, 300 μM H-Gly-Arg-AMC, 30 min pre-incubation at 25° C., pH 5.0, read-out: h DPP1 pIC50 (converted).
Where [2] appears, read: 0.35 nM human DPP1, 300 μM H-Gly-Arg-AMC, 30 min pre-incubation at 25° C., pH 5.0.

Structures are written as SMILES. Where “and” joins values, the source holds several entries; their conditions need not be identical. Equal entries are not always repeated. Where two headings read alike, the source gives them in different places.

Chain of human DPP1 enzyme (P53634 231-394): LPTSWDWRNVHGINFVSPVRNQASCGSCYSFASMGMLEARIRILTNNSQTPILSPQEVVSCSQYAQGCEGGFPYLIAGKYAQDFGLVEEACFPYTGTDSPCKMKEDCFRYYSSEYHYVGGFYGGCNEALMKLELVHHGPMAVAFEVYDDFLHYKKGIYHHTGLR
Chain of human DPP1 enzyme (P53634 25-134): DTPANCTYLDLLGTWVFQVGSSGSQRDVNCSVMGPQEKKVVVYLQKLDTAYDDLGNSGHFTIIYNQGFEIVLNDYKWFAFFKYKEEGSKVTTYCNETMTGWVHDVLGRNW
Chain of human DPP1 enzyme (P53634 395-463): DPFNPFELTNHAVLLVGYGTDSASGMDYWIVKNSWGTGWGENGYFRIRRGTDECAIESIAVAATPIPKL

Turning to `COC1(C(=O)NC(C#N)Cc2ncc(-c3ccc(C#N)cc3)cc2F)CN(C)C1` (racemic) [Example 43, N-(1-cyano-2-(5-(4-cyanophenyl)-3-fluoropyridin-2-yl)ethyl)-3-methoxy-1-methylazetidine-3-carboxamide], the IC50 under setting [1] was 0.01 to 0.1 µM. The same measure, in the same setting: for `COC1(C(=O)NC(C#N)Cc2ncc(-c3ccc(C#N)cc3)cc2F)CN(C)C1` (single isomer, unassigned; enantiomer 1) [Example 44, enantiomer 1 of N-(1-cyano-2-(5-(4-cyanophenyl)-3-fluoropyridin-2-yl)ethyl)-3-methoxy-1-methylazetidine-3-carboxamide] the value was 0.01 to 0.1 µM.

Turning to `COC1(C(=O)NC(C#N)Cc2ncc(-c3ccc(C#N)cc3)cc2F)CN(C)C1` (single isomer, unassigned; enantiomer 2) [Example 45, Enantiomer 2 of N-(1-cyano-2-(5-(4-cyanophenyl)-3-fluoropyridin-2-yl)ethyl)-3-methoxy-1-methylazetidine-3-carboxamide], under setting [1], the IC50 was 1 to 10 µM. Consider `N#Cc1ccc(-c2ccc(C[C@@H](C#N)NC(=O)C3(O)CNC3)cc2)cc1` [Example 1, (S)-N-(1-cyano-2-(4′-cyano-[1,1′-biphenyl]-4-yl)ethyl)-3-hydroxyazetidine-3-carboxamide], for which the IC50 under setting [1] was 0.1 to 1 µM. In the case of `N#Cc1ccc(-c2ccc(C[C@@H](C#N)NC(=O)C3(F)CNC3)cc2)cc1` [Example 2, (S)-N-(1-cyano-2-(4′-cyano-[1,1′-biphenyl]-4-yl)ethyl)-3-fluoroazetidine-3-carboxamide], the IC50 under setting [1] was 0.1 to 1 µM. On the same count and under the same terms, for `CC1NCC1C(=O)N[C@H](C#N)Cc1ccc(-c2ccc(C#N)cc2)cc1` (stereo partly drawn) [Example 3, N-((S)-1-cyano-2-(4′-cyano-[1,1′-biphenyl]-4-yl)ethyl)-2-methylazetidine-3-carboxamide] the value was 1 to 10 µM; for `CC1(C)NCC1C(=O)N[C@H](C#N)Cc1ccc(-c2ccc(C#N)cc2)cc1` (stereo partly drawn) [Example 4, N-((S)-1-cyano-2-(4′-cyano-[1,1′-biphenyl]-4-yl)ethyl)-2,2-dimethylazetidine-3-carboxamide], 1 to 10 µM; for `CCC1(C(=O)N[C@H](C#N)Cc2ccc(-c3ccc(C#N)cc3)cc2)CNC1` [Example 5, (S)-N-(1-cyano-2-(4′-cyano-[1,1′-biphenyl]-4-yl)ethyl)-3-ethylazetidine-3-carboxamide], 0.1 to 1 µM. On the same count and under the same terms, then `COC1(C(=O)N[C@H](C#N)Cc2ccc(-c3ccc(C#N)cc3)cc2)CNC1` [Example 6, (S)-N-(1-cyano-2-(4′-cyano-[1,1′-biphenyl]-4-yl)ethyl)-3-methoxyazetidine-3-carboxamide], with 0.01 to 0.1 µM; and `N#Cc1ccc(-c2ccc(C[C@@H](C#N)NC(=O)C3(C(F)F)CNC3)cc2)cc1` [Example 7, (S)-N-(1-cyano-2-(4′-cyano-[1,1′-biphenyl]-4-yl)ethyl)-3-(difluoromethyl)azetidine-3-carboxamide], with 0.01 to 0.1 µM; and `N#Cc1ccc(-c2ccc(C[C@@H](C#N)NC(=O)C3(CF)CNC3)cc2)cc1` [Example 8, (S)-N-(1-cyano-2-(4′-cyano-[1,1′-biphenyl]-4-yl)ethyl)-3-(fluoromethyl)azetidine-3-carboxamide], with 0.01 to 0.1 µM. For `N#Cc1ccc(-c2ccc(C[C@@H](C#N)NC(=O)C3CNC3)cc2)cc1` [Example 9, (S)-N-(1-cyano-2-(4′-cyano-[1,1′-biphenyl]-4-yl)ethyl)azetidine-3-carboxamide], the IC50 under setting [1] was 1 to 10 µM and 0.1 to 1 µM; the IC50 (human recombinant DPP1 isolated enzyme assay, read-out: pIC50 on DPP1 (converted)) was 1 to 10 µM. For the compound `COCC1(C(=O)N[C@H](C#N)Cc2ccc(-c3ccc(C#N)cc3)cc2)CNC1` [Example 10, (S)-N-(1-cyano-2-(4′-cyano-[1,1′-biphenyl]-4-yl)ethyl)-3-(methoxymethyl)azetidine-3-carboxamide], the IC50 under setting [1] is 1 to 10 µM. Still for that read-out and setting: for `CCOC1(C(=O)N[C@H](C#N)Cc2ccc(-c3ccc(C#N)cc3)cc2)CNC1` [Example 11, (S)-N-(1-cyano-2-(4′-cyano-[1,1′-biphenyl]-4-yl)ethyl)-3-ethoxyazetidine-3-carboxamide] the value was 0.01 to 0.1 µM; for `COC1(C(=O)N[C@H](C#N)Cc2ccc(-c3ccc(C#N)cc3)cc2F)CNC1` [Example 12, (S)-N-(1-cyano-2-(4′-cyano-3-fluoro-[1,1′-biphenyl]-4-yl)ethyl)-3-methoxyazetidine-3-carboxamide], 0.01 to 0.1 µM.

As for `N#Cc1ccc(-c2ccc(C[C@@H](C#N)NC(=O)C3(C(F)F)CNC3)c(F)c2)cc1` [Example 13, (S)-N-(1-cyano-2-(4′-cyano-3-fluoro-[1,1′-biphenyl]-4-yl)ethyl)-3-(difluoromethyl)azetidine-3-carboxamide], under setting [1], the IC50 was 0.01 to 0.1 µM. Still for that read-out and setting: then `Cn1c(=O)oc2ccc(-c3ccc(C[C@@H](C#N)NC(=O)C4(C(F)F)CNC4)cc3)cc21` [Example 14, (S)-N-(1-cyano-2-(4-(3-methyl-2-oxo-2,3-dihydrobenzo[d]oxazol-5-yl)phenyl)ethyl)-3-(difluoromethyl)azetidine-3-carboxamide], with 0.01 to 0.1 µM. With `N#C[C@H](Cc1ccc(-c2ccc3c(c2)C2(CCN(C4COC4)CC2)OC3)cc1F)NC(=O)C1(C(F)F)CNC1` [Example 15, (S)-N-(1-cyano-2-(2-fluoro-4-(1′-(oxetan-3-yl)-3H-spiro[isobenzofuran-1,4′-piperidin]-6-yl)phenyl)ethyl)-3-(difluoromethyl)azetidine-3-carboxamide], the “h DPP1 pIC50” value under setting [2] is listed as “++++ (h DPP1 pIC50 higher than 8)”. The same measure, in the same setting: for `CN1C(=O)Cc2ccc(-c3ccc(C[C@@H](C#N)NC(=O)C4(C(F)F)CNC4)c(F)c3)cc21` [Example 16, (S)-N-(1-cyano-2-(2-fluoro-4-(1-methyl-2-oxoindolin-6-yl)phenyl)ethyl)-3-(difluoromethyl)azetidine-3-carboxamide] the value was “++++ (h DPP1 pIC50 higher than 8)”.

On to `N#Cc1ccc(-c2ccc(C[C@@H](C#N)NC(=O)C3(C(F)(F)F)CNC3)cc2)cc1` [Example 17, (S)-N-(1-cyano-2-(4′-cyano-[1,1′-biphenyl]-4-yl)ethyl)-3-(trifluoromethyl)azetidine-3-carboxamide], for which the IC50 under setting [1] was 0.01 to 0.1 µM. The same measure, in the same setting: for `CSC1(C(=O)N[C@H](C#N)Cc2ccc(-c3ccc(C#N)cc3)cc2)CNC1` [Example 18, (S)-N-(1-cyano-2-(4′-cyano-[1,1′-biphenyl]-4-yl)ethyl)-3-(methylthio)azetidine-3-carboxamide] the value was 0.01 to 0.1 µM; for `N#Cc1ccc(-c2ccc(C[C@@H](C#N)NC(=O)C3(Cc4ccccc4)CNC3)cc2)cc1` [Example 20, (S)-3-benzyl-N-(1-cyano-2-(4′-cyano-[1,1′-biphenyl]-4-yl)ethyl)azetidine-3-carboxamide], 1 to 10 µM; for `N#Cc1ccc(-c2ccc(C[C@@H](C#N)NC(=O)C3(Oc4ccccc4)CNC3)cc2)cc1` [Example 21, (S)-N-(1-cyano-2-(4′-cyano-[1,1′-biphenyl]-4-yl)ethyl)-3-phenoxyazetidine-3-carboxamide], 1 to 10 µM. On the same count and under the same terms, for `COC1(C(=O)N[C@H](C#N)Cc2ccc(-c3ccc4c(c3)N(C)C(=O)C4)cc2)CNC1` [Example 22, (S)-N-(1-cyano-2-(4-(1-methyl-2-oxoindolin-6-yl)phenyl)ethyl)-3-methoxyazetidine-3-carboxamide] the value was 0.01 to 0.1 µM; for `N#Cc1ccc(-c2ccc(C[C@@H](C#N)NC(=O)C3CN(C4COC4)C3)cc2)cc1` [Example 23, (S)-N-(1-cyano-2-(4′-cyano-[1,1′-biphenyl]-4-yl)ethyl)-1-(oxetan-3-yl)azetidine-3-carboxamide], 1 to 10 µM.

In the case of `COC1(C(=O)N[C@H](C#N)Cc2ccc(-c3ccc(C#N)cc3)cc2)CN(C)C1` [Example 24, (S)-N-(1-cyano-2-(4′-cyano-[1,1′-biphenyl]-4-yl)ethyl)-3-methoxy-1-methylazetidine-3-carboxamide], the “h DPP1 pIC50” value under setting [2] was “++++ (h DPP1 pIC50 higher than 8)”. `CC(C)OC1(C(=O)N[C@H](C#N)Cc2ccc(-c3ccc(C#N)cc3)cc2)CNC1` [Example 26, (S)-N-(1-cyano-2-(4′-cyano-[1,1′-biphenyl]-4-yl)ethyl)-3-isopropoxyazetidine-3-carboxamide]: the IC50 under setting [1] was 1 to 10 µM. On the same count and under the same terms, then `COC1(C(=O)N[C@H](C#N)Cc2ccc(-c3ccc(C#N)cc3)cc2)CN(C2COC2)C1` [Example 29, (S)-N-(1-cyano-2-(4′-cyano-[1,1′-biphenyl]-4-yl)ethyl)-3-methoxy-1-(oxetan-3-yl)azetidine-3-carboxamide], with 0.1 to 1 µM. On the same count and under the same terms, for `COC1(C(=O)N[C@H](C#N)Cc2ccc(-c3ccc(C#N)cc3)cc2)CN(C(C)C)C1` [Example 30, (S)-N-(1-cyano-2-(4′-cyano-[1,1′-biphenyl]-4-yl)ethyl)-1-isopropyl-3-methoxyazetidine-3-carboxamide] the value was 1 to 10 µM; for `COC1(C(=O)N[C@H](C#N)Cc2ccc(-c3ccc(C#N)cc3)cc2)CNC1C` (stereo partly drawn) [Example 31, N-((S)-1-cyano-2-(4′-cyano-[1,1′-biphenyl]-4-yl)ethyl)-3-methoxy-2-methylazetidine-3-carboxamide], 0.1 to 1 µM. Same read-out and setting: for `CN1CC(C(=O)N[C@H](C#N)Cc2ccc(-c3ccc(C#N)cc3)cc2)(C(F)F)C1` [Example 35, (S)-N-(1-cyano-2-(4′-cyano-[1,1′-biphenyl]-4-yl)ethyl)-3-(difluoromethyl)-1-methylazetidine-3-carboxamide] the value was 0.1 to 1 µM.
